Source: patent publication US20050009840A1 (SUGEN, INC., priority 2003, published 2005)

Each compound was assayed against T1, Met kinase domain (GST fusion protein) (Homo sapiens, UniProt P08581) (assay: Met transphosphorylation assay (ELISA, poly(glu-tyr) substrate)). Details: read-out: Met IC50.
T1 construct: Purified GST fusion protein containing the Met kinase domain
Assay type: biochemical
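Further: Cell-free ELISA with plate-bound poly(Glu:Tyr 4:1) phosphorylated by GST-fused Met kinase domain plus ATP and Mn2+, phosphotyrosine detected by anti-phosphotyrosine antibody with HRP and ABTS read-out.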
Experimental: General procedure is as follows: a compound is introduced to cells expressing the test kinase, either naturally or recombinantly, for a selected period of time after which, if the test kinase is a receptor, a ligand known to activate the receptor is added. The cells are lysed and the lysate is transferred to the wells of an ELISA plate previously coated with a specific antibody recognizing the substrate of the enzymatic phosphorylation reaction. Non-substrate components of the cell lysate are washed away and the amount of phosphorylation on the substrate is detected with an antibody specifically recognizing phosphotyrosine compared with control cells that were not contacted with a test compound.
Met Transphosphorylation Assay
This assay is used to measure phosphotyrosine levels on a poly(glutamic acid:tyrosine, 4:1) substrate as a means for identifying agonists/antagonists of met transphosphorylation of the substrate.
PBS, Gibco Catalog # 450-1300EB • 4. 50 mM HEPES • 5. […] Purified GST fusion protein containing the Met kinase domain, SUGEN, Inc. • 7. TBST Buffer. • 8. 10% aqueous (MilliQue H2O) DMSO. • 9. […] 2× Kinase Dilution Buffer: for 100 mL, mix 10 mL 1M HEPESat pH 7.5 with 0.4 mL 5% BSA/PBS, 0.2 mL 0.1 M sodium orthovanadate and 1 mL 5M sodium chloride in 88.4 mL dH2O. • 11. 4× ATP Reaction Mixture: for 10 mL, mix 0.4 mL 1 M manganese chloride and 0.02 mL 0.1 M ATP in 9.56 mL dH2O. • 12. 4× Negative Controls Mixture: for 10 mL, mix 0.4 mL 1 M manganese chloride in 9.6 mL dH2O. • 13. […] 500 mM EDTA. • 15. Antibody Dilution Buffer: for 100 mL, mix 10 mL 5% BSA/PBS, 0.5 mL 5% Carnation® Instant Milk in PBS and 0.1 mL 0.1 M sodium orthovanadate in 88.4 mL TBST. • 16. Rabbit polyclonal antophosphotyrosine antibody, SUGEN, Inc. • 17. Goat anti-rabbit horseradish peroxidase conjugated antibody, Biosource, Inc. • 18. ABTS Solution: for 1 L, mix 19.21 g citric acid, 35.49 g Na2HPO4 and 500 mg ABTS with sufficient dH2O to make 1 L. • 19. ABTS/H2O2: mix 15 mL ABST solution with 2μL H2O2 five minutes before use. • 20. 0.2 M HCl Procedure: • 1. Coat ELISA plates with 2 μg Poly(Glu-Tyr) in 100 μL PBS, hold-overnight at 4° C. • 2. Block plate with 150 μL of 5% BSA/PBS for 60 min. • 3. Wash plate twice with PBS then once with 50 mM Hepes buffer pH 7.4. • 4. Add 50 μl of the diluted kinase to all wells. (Purified kinase is diluted with Kinase Dilution Buffer. Final concentration should be 10 ng/well.) • 5. Add 25 μL of the test compound (in 4% DMSO) or DMSO alone (4% in dH2O) for controls to plate. • 6. Incubate the kinase/compound mixture for 15 minutes. • 7. Add 25 μL of 40 mM MnCl2 to the negative control wells. • 8. Add 25 μL ATP/MnCl2 mixture to the all other wells (except the negative controls). Incubate for 5 min. • 9. Add 25 μL 500 mM EDTA to stop reaction. • 10. Wash plate 3× with TBST. • 11. Add 100 μL rabbit polyclonal anti-Ptyr diluted 1:10,000 in Antibody Dilution Buffer to each well. Incubate, with shaking, at room temperature for one hour. • 12. Wash plate 3× with TBST. • 13. […] Add 100 μL per well and incubate at room temperature, with shaking, for one hour. • 14. Wash plate 1× with PBS. • 15. Add 100 μl of ABTS/H2O2 solution to each well. • 16. If necessary, stop the development reaction with the addition of 100 μl of 0.2M HCl per well. • 17.

T1 sequence (P08581 1078-1345 limits assumed): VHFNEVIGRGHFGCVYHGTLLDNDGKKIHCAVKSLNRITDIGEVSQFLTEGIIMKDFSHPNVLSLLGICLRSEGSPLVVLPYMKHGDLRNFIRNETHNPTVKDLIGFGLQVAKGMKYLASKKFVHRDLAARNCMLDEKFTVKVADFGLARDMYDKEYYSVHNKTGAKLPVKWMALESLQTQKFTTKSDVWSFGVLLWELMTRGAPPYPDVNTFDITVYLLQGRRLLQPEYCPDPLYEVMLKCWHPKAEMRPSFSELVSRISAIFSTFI

Structure (SMILES)	IC50
CS(=O)(=O)Nc1ccccc1-c1cnc(N)c(OCc2c(Cl)cccc2Cl)c1 [Example I-26, N-{2-[6-Amino-5-(2,6-dichloro-benzyloxy)-pyridin-3-yl]-phenyl}-methanesulfonamide]	> 20000 nM
Nc1ncc(-c2ccc(CO)cc2)cc1OCc1c(Cl)cccc1Cl [Example I-27, {4-[6-Amino-5-(2,6-dichloro-benzyloxy)-pyridin-3-yl]-phenyl}-methanol]	2500 nM
Nc1ncc(-c2ccc3c(c2)OCO3)cc1OCc1c(Cl)cccc1Cl [Example I-28, 5-Benzo[1,3]dioxol-5-yl-3-(2,6-dichloro-benzyloxy)-pyridin-2-ylamine]	8500 nM
Cc1csc(-c2cnc(N)c(OCc3c(Cl)cccc3Cl)c2)c1 [Example I-30, 3-(2,6-Dichloro-benzyloxy)-5-(4-methyl-thiophen-2-yl)-pyridin-2-ylamine]	3500 nM
COc1cccc(-c2cnc(N)c(OCc3c(Cl)cccc3Cl)c2)c1 [Example I-32, 3-(2,6-Dichloro-benzyloxy)-5-(3-methoxy-phenyl)-pyridin-2-ylamine]	4010 nM
Nc1ncc(-c2ccc(OCc3ccccc3)c(F)c2)cc1OCc1c(Cl)cccc1Cl [Example I-34, 5-(4-Benzyloxy-3-fluoro-phenyl)-3-(2,6-dichloro-benzyloxy)-pyridin-2-ylamine]	13500 nM
Nc1ncc(-c2ccc(C(=O)O)cc2)cc1OCc1c(Cl)cccc1Cl [Example I-35, 4-[6-Amino-5-(2,6-dichloro-benzyloxy)-pyridin-3-yl]-benzoic acid]	12800 nM
CCN(CC)CCCNC(=O)c1ccc(-c2cnc(N)c(OCc3c(Cl)cccc3Cl)c2)cc1 [Example I-37, 4-[6-Amino-5-(2,6-dichloro-benzyloxy)-pyridin-3-yl]-N-(3-diethylamino-propyl)-benzamide]	820 nM
CN1CCN(C(=O)c2ccc(-c3cnc(N)c(OCc4c(Cl)cccc4Cl)c3)cc2)CC1 [Example I-38, {4-[6-Amino-5-(2,6-dichloro-benzyloxy)-pyridin-3-yl]-phenyl}-(4-methyl-piperazin-1-yl)-methanone]	1020 nM
Nc1ncc(-c2ccc(C(=O)N3CCC(CCO)CC3)cc2)cc1OCc1c(Cl)cccc1Cl [Example I-42, {4-(6-Amino-5-(2,6-dichloro-benzyloxy)-pyridin-3-yl]-phenyl}-[4-(2-hydroxy-ethyl)-piperidin-1-yl]-methanone]	560 nM
Nc1ncc(-c2ccc(C(=O)NCC(O)CN3CCCC3)cc2)cc1OCc1c(Cl)cccc1Cl (centres unmarked) [Example I-46, 4-[6-Amino-5-(2,6-dichloro-benzyloxy)-pyridin-3-yl]-N-(2-hydroxy-3-pyrrolidin-1-yl-propyl)-benzamide]	200 nM
Nc1ncc(-c2ccc(C(=O)N3CCC[C@H]3CN3CCCC(F)C3)cc2)cc1OCc1c(Cl)cccc1Cl (stereo partly drawn) [Example I-47, {4-[6-Amino-5-(2,6-dichloro-benzyloxy)-pyridin-3-yl]-phenyl}-[(2S)-2-(3-fluoro-piperidin-1-ylmethyl)-pyrrolidin-1-yl]-methanone]	420 nM
Nc1ncc(-c2ccc(C(=O)N3CCN(C4CC4)CC3)cc2)cc1OCc1c(Cl)cccc1Cl [Example I-48, {4-[6-Amino-5-(2,6-dichloro-benzyloxy)-pyridin-3-yl]-phenyl}-(4-cyclopropyl-piperazin-1-yl)-methanone]	1670 nM
Nc1ncc(-c2ccc(C(=O)N(CC3CC3)C[C@H]3CCCN3)cc2)cc1OCc1c(Cl)cccc1Cl [Example I-50, 4-[6-Amino-5-(2,6-dichloro-benzyloxy)-pyridin-3-yl]-N-cyclopropylmethyl-N-(2R)-pyrrolidin-2-ylmethyl-benzamide]	290 nM
CN(CC(O)CN1CCCC1)C(=O)c1ccc(-c2cnc(N)c(OCc3c(Cl)cccc3Cl)c2)cc1 (centres unmarked) [Example I-51, 4-[6-Amino-5-(2,6-dichloro-benzyloxy)-pyridin-3-yl]-N-(2-hydroxy-3-pyrrolidin-1-yl-propyl)-N-methyl-benzamide]	710 nM
Nc1ncc(-c2cccc(C(=O)O)c2)cc1OCc1c(Cl)cccc1Cl [Example I-53, 3-[6-Amino-5-(2,6-dichloro-benzyloxy)-pyridin-3-yl]-benzoic acid]	16000 nM
Nc1ncc(-c2ccc(OCC(=O)N3CCC[C@@H]3CN3CCCC3)cc2)cc1OCc1c(Cl)cccc1Cl [Example I-56, 2-{4-[6-Amino-5-(2,6-dichloro-benzyloxy)-pyridin-3-yl]-phenoxy}-1-[(2R)-2-pyrrolidin-1-ylmethyl-pyrrolidin-1-yl]-ethanone]	530 nM
Nc1ncc(-c2ccc(OCC(=O)N3CCC[C@H]3CN3CCCC3)cc2)cc1OCc1c(Cl)cccc1Cl [Example I-57, 2-{4-[6-Amino-5-(2,6-dichloro-benzyloxy)-pyridin-3-yl]-phenoxy}-1-[(2S)-2-pyrrolidin-1-ylmethyl-pyrrolidin-1-yl]-ethanone]	500 nM
CN1CC=C(c2c[nH]c3ccc(-c4cnc(N)c(OCc5c(Cl)cccc5Cl)c4)cc23)CC1 [Example I-59, 3-(2,6-Dichloro-benzyloxy)-5-[3-(1-methyl-1,2,3,6-tetrahydro-pyridin-4-yl)-1H-indol-5-yl]-pyridin-2-ylamine]	1570 nM
CC(C)(C)OC(=O)N[C@@H]1CCN(Cc2c[nH]c3ccc(-c4cnc(N)c(OCc5c(Cl)cccc5Cl)c4)cc23)C1 [Example I-65]	6300 nM
CC(=O)N[C@@H]1CCN(Cc2c[nH]c3ccc(-c4cnc(N)c(OCc5c(Cl)cccc5Cl)c4)cc23)C1 [Example I-67, N-(1-{5-[6-Amino-5-(2,6-dichloro-benzyloxy)-pyridin-3-yl]-1H-indol-3-ylmethyl}-(3R)-pyrrolidin-3-yl)-acetamide]	1790 nM

Other lines, results leading:

IC50	Structure (SMILES)
> 20000 nM	Nc1ncc(-c2ccccc2OC(F)(F)F)cc1OCc1c(Cl)cccc1Cl [Example I-29, 3-(2,6-Dichloro-benzyloxy)-5-(2-trifluoromethoxy-phenyl)-pyridin-2-ylamine]
> 20000 nM	Nc1ncc(-c2ccccc2OCc2ccccc2)cc1OCc1c(Cl)cccc1Cl [Example I-31, 5-(2-Benzyloxy-phenyl)-3-(2,6-dichloro-benzyloxy)-pyridin-2-ylamine]
7500 nM	Nc1ncc(-c2cc3ccccc3[nH]2)cc1OCc1c(Cl)cccc1Cl [Example I-33, 3-(2,6-Dichloro-benzyloxy)-5-(1H-indol-2-yl)-pyridin-2-ylamine]
990 nM	CCN(CC)CCNC(=O)c1ccc(-c2cnc(N)c(OCc3c(Cl)cccc3Cl)c2)cc1 [Example I-36, 4-[6-Amino-5-(2,6-dichloro-benzyloxy)-pyridin-3-yl]-N-(2-diethylamino-ethyl)-benzamide]
470 nM	CN(C)[C@H]1CCN(C(=O)c2ccc(-c3cnc(N)c(OCc4c(Cl)cccc4Cl)c3)cc2)C1 [Example I-43, {4-[6-Amino-5-(2,6-dichloro-benzyloxy)-pyridin-3-yl]-phenyl}-[(3S)-3-dimethylamino-pyrrolidin-1-yl]-methanone]
650 nM	CN(C)[C@@H]1CCN(C(=O)c2ccc(-c3cnc(N)c(OCc4c(Cl)cccc4Cl)c3)cc2)C1 [Example I-44, {4-[6-Amino-5-(2,6-dichloro-benzyloxy)-pyridin-3-yl]-phenyl}-[(3R)-3-dimethylamino-pyrrolidin-1-yl]-methanone]
370 nM	Nc1ncc(-c2ccc(C(=O)N3CCC[C@@H]3CNCC3CC3)cc2)cc1OCc1c(Cl)cccc1Cl [Example I-49, {4-[6-Amino-5-(2,6-dichloro-benzyloxy)-pyridin-3-yl]-phenyl}-{(2R)-2-[(cyclopropylmethyl-amino)-methyl]-pyrrolidin-1-yl}-methanone]
530 nM	Nc1ncc(-c2ccc(C(=O)N3CCC[C@H]3CN3CC[C@@H](O)C3)cc2)cc1OCc1c(Cl)cccc1Cl [Example I-52, {4-[6-Amino-5-(2,6-dichloro-benzyloxy)-pyridin-3-yl]-phenyl}-{(2S)-2-[(3R)-3-hydroxy-pyrrolidin-1-ylmethyl]-pyrrolidin-1-yl}-methanone]
2500 nM	Nc1ncc(-c2cccc(C(=O)N3CCC[C@@H]3CN3CCCC3)c2)cc1OCc1c(Cl)cccc1Cl [Example I-54, {3-(6-Amino-5-(2,6-dichloro-benzyloxy)-pyridin-3-yl]-phenyl}-[(2R)-2-pyrrolidin-1-ylmethyl-pyrrolidin-1-yl]-methanone]
2410 nM	Nc1ncc(-c2ccc(OCC(=O)O)cc2)cc1OCc1c(Cl)cccc1Cl [Example I-55, {4-[6-Amino-5-(2,6-dichloro-benzyloxy)-pyridin-3-yl]-phenoxy}-acetic acid]
4300 nM	Nc1ncc(-c2ccc3[nH]ccc3c2)cc1OCc1c(Cl)cccc1Cl [Example I-58, 3-(2,6-Dichloro-benzyloxy)-5-(1H-indol-5-yl)-pyridin-2-ylamine]
3040 nM	CN1CCC(c2c[nH]c3ccc(-c4cnc(N)c(OCc5c(Cl)cccc5Cl)c4)cc23)CC1 [Example I-60, 3-(2,6-Dichloro-benzyloxy)-5-[3-(1-methyl-piperidin-4-yl)-1H-indol-5-yl]-pyridin-2-ylamine]
1190 nM	Nc1ncc(-c2ccc3[nH]cc(CN4CCOCC4)c3c2)cc1OCc1c(Cl)cccc1Cl [Example I-61, 3-(2,6-Dichloro-benzyloxy)-5-(3-morpholin-4-ylmethyl-1H-indol-5-yl)-pyridin-2-ylamine]
1410 nM	Nc1ncc(-c2ccc3[nH]cc(CN4CCCCC4)c3c2)cc1OCc1c(Cl)cccc1Cl [Example I-62, 3-(2,6-Dichloro-benzyloxy)-5-(3-piperidin-1-ylmethyl-1H-indol-5-yl)-pyridin-2-ylamine]
1340 nM	Nc1ncc(-c2ccc3[nH]cc(CN4CCCC4)c3c2)cc1OCc1c(Cl)cccc1Cl [Example I-63, 3-(2,6-Dichloro-benzyloxy)-5-(3-pyrrolidin-1-ylmethyl-1H-indol-5-yl)-pyridin-2-ylamine]
3230 nM	CCN(CC)Cc1c[nH]c2ccc(-c3cnc(N)c(OCc4c(Cl)cccc4Cl)c3)cc12 [Example I-64, 3-(2,6-Dichloro-benzyloxy)-5-(3-diethylaminomethyl-1H-indol-5-yl)-pyridin-2-ylamine]
> 20000 nM	C[C@@H]1CN(Cc2c[nH]c3ccc(-c4cnc(N)c(OCc5c(Cl)cccc5Cl)c4)cc23)C[C@H](C)O1 [Example I-66, 3-(2,6-Dichloro-benzyloxy)-5-[3-(2,6-dimethyl-morpholin-4-ylmethyl)-1H-indol-5-yl]-pyridin-2-ylamine]
